From patent US9517985B2, “Method for producing butanol using extractive fermentation” (Butamax Advanced Biofuels LLC, priority 2013, dated 2016)
Where two headings read alike, the source gives them in different places.

How the values were obtained:
[1] = Secondary screen for solvent biocompatibility (shake flask; Cellometer viability, glucose, isobutanol); conditions: yeast (isobutanologen)
isobutanologen [2] = experiment: as above; conditions: 30° C.; for % Viability: relative to oleyl alcohol
isobutanologen [3] = experiment: Automated primary screen for solvent biocompatibility (96 well plate, propidium iodide dead-cell fluorescence); format: cell-based
isobutanologen [4] = experiment: Tertiary screen for solvent biocompatibility (growth of isobutanologen in rich media with solvent, time course); format: cell-based; conditions: for isobutanol production: FIG. 11, versus oleyl alcohol control; for glucose consumption: FIG. 12, versus oleyl alcohol control; for ethanol consumption: FIG. 13, versus oleyl alcohol control
isobutanologen [5] = system: isobutanologen
isobutanologen [6] = experiment: Three step screening process, overall biocompatibility call
[7] = system: modified Escherichia coli strain; conditions: oleyl alcohol as the organic extractant, Example 6 of US 2009/0305370; cited from earlier work
[8] = propidium iodide signal, 1 h exposure, 1:1 aq:org, room temperature

Molecule	viability at 4 h [1] [%]	viability at 25 h [1] [%]	Glucose (isobutanologen [2]; 4 Hours) [g/L]	iBuOH (isobutanologen [2]; 4 Hours) [g/L]	Glucose (isobutanologen [2]; 25 Hours) [g/L]	iBuOH (isobutanologen [2]; 25 Hours) [g/L]	viability at 30 h [1] [%]	Glucose (isobutanologen [2]; 30 Hours) [g/L]	iBuOH (isobutanologen [2]; 30 Hours) [g/L]	further results
CCCCOCCOCCCC [1,2-dibutoxyethane]	63	8	11.9	0.4	10.7	0.4	–	–	–	–
CC(C)CC(O)CC(C)C [2,6-dimethylheptan-4-ol]	42	8	12.1	0.0	11.8	0.0	–	–	–	–
CCCCC(CC)COC(C)=O (stereo not drawn) [2-ethyl hexyl acetate]	–	–	10.5	0.6	7.1	1.2	–	–	–	% Viability (isobutanologen [2]; 4 Hours, 1:1): 96%; % Viability (isobutanologen [2]; 25 Hours, 1:1): 42%; % Dead (isobutanologen [3]; [8]): 3%
CCCCC(CC)CO (stereo not drawn) [2-ethyl-1-hexanol, reference compound]	14	6	13.1	0.0	13.7	0.0	47	16.8	0.0	viability at 5 h [1]: 58%
CCCCC(CC)COCCO (stereo not drawn) [2-ethylhexylglycol ether]	–	–	–	–	–	–	–	–	–	% Dead (isobutanologen [3]; [8]): 79%
CC(C)CC(=O)CC(C)C [2.6-dimethylheptan-4-one]	–	–	10.9	0.6	7.9	0.9	–	–	–	% Viability (isobutanologen [2]; 4 Hours, 1:1): 78%; % Viability (isobutanologen [2]; 25 Hours, 1:1): 26%; % Dead (isobutanologen [3]; [8]): 5%
Cc1cccc2cccnc12 [8-methylquinoline]	–	–	–	–	–	–	47	17.5	0.0	–
CCOC(C)(C)C [ETBE]	–	–	12.5	0.0	12.8	0.0	–	–	–	% Viability (isobutanologen [2]; 4 Hours, 1:1): 16%; % Viability (isobutanologen [2]; 25 Hours, 1:1): 4%; % Dead (isobutanologen [3]; [8]): 6%
COC(C)(C)C [MTBE]	–	–	12.7	0.0	12.9	0.2	–	–	–	% Dead (isobutanologen [3]): 19%
C1CCC2CCCCC2C1 (stereo not drawn) [decalin]	76	36	11.2	0.4	10.3	0.5	–	–	–	–
CCCCCCOCCCCCC [di-n-hexyl ether]	106	62	8.1	1.1	0.9	1.9	–	–	–	–
CCCCCCCCOCCCCCCCC [di-n-octyl ether]	–	–	–	–	–	–	99	0.0	1.9	viability at 5 h [1]: 99%; isobutanol production (isobutanologen [4]): comparable to oleyl alcohol; glucose consumption (isobutanologen [4]): comparable to oleyl alcohol; ethanol consumption (isobutanologen [4]): comparable to oleyl alcohol
CCCCCCCCCCCC=O [dodecanal]	–	–	–	–	–	–	62	0.0	0.0	viability at 5 h [1]: 78%; biocompatibility (isobutanologen [5]): toxic
CCCCCCCCCCCC [dodecane]	–	–	–	–	–	–	99	0.0	1.9	viability at 5 h [1]: 99%; isobutanol production (isobutanologen [4]): comparable to oleyl alcohol; glucose consumption (isobutanologen [4]): comparable to oleyl alcohol; ethanol consumption (isobutanologen [4]): comparable to oleyl alcohol; biocompatibility (isobutanologen [6]): biocompatible
CCCCCCCCCCCCO [dodecanol]	–	–	–	–	–	–	–	–	–	biocompatibility (isobutanologen [6]): toxic
CC(C)CC(C)(C)C [isooctane]	90	31	10.8	0.5	8.5	0.8	–	–	–	–
Cc1cc(C)cc(C)c1 [mesitylene]	64	17	12.5	0.0	12.1	0.1	–	–	–	–
CCCCCCCCCCCC(=O)OC [methyl laurate]	110	94	3.9	2.1	0.0	1.6	–	–	–	isobutanol production (isobutanologen [4]): comparable to oleyl alcohol; glucose consumption (isobutanologen [4]): comparable to oleyl alcohol; ethanol consumption (isobutanologen [4]): comparable to oleyl alcohol
CCCCOC(C)=O [n-butyl acetate]	–	–	–	–	–	–	35	16.6	0.0	viability at 5 h [1]: 46%
CCCCOC(=O)CCC [n-butyl n-butyrate]	48	7	12.4	0.0	11.7	0.0	–	–	–	–
CCCCCCCCCC [n-decane]	107	54	5.8	1.6	0.0	2.3	–	–	–	–
CCCCCCOC(C)=O [n-hexyl acetate]	18	3	12.8	0.0	13.0	0.0	–	–	–	–
CCCCCCCCCCC [n-undecane]	–	–	–	–	–	–	100	0.0	1.9	viability at 5 h [1]: 98%; isobutanol production (isobutanologen [4]): comparable to oleyl alcohol; glucose consumption (isobutanologen [4]): comparable to oleyl alcohol; ethanol consumption (isobutanologen [4]): comparable to oleyl alcohol
CCCCCCCC/C=C\CCCCCCCCO [oleyl alcohol, reference compound]	100	100	5.7	1.8	0.0	2.6	100	0.0	2.2	viability at 5 h [1]: 100%; effective titer for isobutanol [7]: 37 g/L
primary amyl acetate mixed isomers	–	–	–	–	–	–	–	–	–	% Dead (isobutanologen [3]; [8]): 104%
trimethylnonanol	–	–	–	–	–	–	–	0.0	2.1	% Viability (isobutanologen [2]; 5 Hours): 99%; % Viability (isobutanologen [2]; 30 Hours): 98%; biocompatibility (isobutanologen [5]): biocompatible; isobutanol production (isobutanologen [4]): comparable to oleyl alcohol; glucose consumption (isobutanologen [4]): comparable to oleyl alcohol; ethanol consumption (isobutanologen [4]): comparable to oleyl alcohol; % Dead (isobutanologen [3]; [8]): 3%
